Experimental data published in publication PMC10687071 (The Journal of Biological Chemistry, 2023).
Numbering of substitutions follows the chain as printed.

Columns and labels:
[1] = molecular target: T1, V83G mutant EAG1 channels (Mus musculus, UniProt Q60603, V83G); test: TEVC recording, imipramine inhibition, V83G mutant; type: cell-based; conditions: V83G mutant EAG1 channel, +50 mV
T1 construct: expressed in transfected cells; host or cells: Xenopus laevis oocytes injected with cRNA
T1 sequence (Q60603 1-989 V83G): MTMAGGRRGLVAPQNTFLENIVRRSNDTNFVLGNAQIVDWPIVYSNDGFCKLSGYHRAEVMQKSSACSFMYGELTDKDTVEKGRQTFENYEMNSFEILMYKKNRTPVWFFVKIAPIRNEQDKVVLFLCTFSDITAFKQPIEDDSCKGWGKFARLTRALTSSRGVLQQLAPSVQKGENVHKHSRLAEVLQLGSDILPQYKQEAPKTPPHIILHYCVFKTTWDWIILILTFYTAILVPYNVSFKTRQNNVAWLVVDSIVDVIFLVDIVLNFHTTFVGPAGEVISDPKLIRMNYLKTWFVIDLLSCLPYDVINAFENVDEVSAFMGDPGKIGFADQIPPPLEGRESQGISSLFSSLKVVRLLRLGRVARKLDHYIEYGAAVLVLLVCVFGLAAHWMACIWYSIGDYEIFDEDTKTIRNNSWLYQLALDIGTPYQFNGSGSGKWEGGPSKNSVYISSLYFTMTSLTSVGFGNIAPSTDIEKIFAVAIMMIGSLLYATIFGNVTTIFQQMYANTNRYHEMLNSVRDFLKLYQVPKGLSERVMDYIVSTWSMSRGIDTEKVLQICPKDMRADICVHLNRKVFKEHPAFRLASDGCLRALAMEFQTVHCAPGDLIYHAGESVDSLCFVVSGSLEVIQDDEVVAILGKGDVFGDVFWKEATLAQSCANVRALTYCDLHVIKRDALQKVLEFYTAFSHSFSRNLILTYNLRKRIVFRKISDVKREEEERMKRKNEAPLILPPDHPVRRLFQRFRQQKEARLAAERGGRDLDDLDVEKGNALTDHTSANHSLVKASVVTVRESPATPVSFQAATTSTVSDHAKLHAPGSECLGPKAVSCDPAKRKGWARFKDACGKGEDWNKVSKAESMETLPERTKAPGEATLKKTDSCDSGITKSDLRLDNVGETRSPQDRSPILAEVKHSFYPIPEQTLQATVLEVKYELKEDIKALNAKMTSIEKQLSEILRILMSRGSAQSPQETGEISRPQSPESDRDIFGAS
From the text: (§1) The cDNA encoding wild-type (WT) mouse EAG1 channels in pGH19 vector was kindly provided by G. Robertson (University of Wisconsin-Madison, Madison, WI). The mutant ΔPAS EAG1 channel in pGH19 with the deletion of the PAS domain residues 2 to 130 was generated by Bio Basic Inc and verified by DNA sequencing (Genewiz). Mutant EAG1 channels with single amino acid substitutions were generated by Genewiz and verified by DNA sequencing. cRNA was transcribed using the T7 mMessage mMachine kit (Thermo Fisher Scientific). Defolliculated Xenopus laevis oocytes were purchased from Ecocyte Bioscience or Xenopus1 and injected with the cRNA using a Nanoinject II oocyte injector (Drummond).
(§2) For EAG1 current recordings, oocytes were placed into a handmade chamber containing a bath solution for the current recording. The currents were recorded using a TEVC technique with OC-725C amplifier (Warner Instruments) and pClamp11 software (Molecular Devices). The signals were digitized using Digidata 1550 (Molecular Devices). Patch pipettes were pulled from borosilicate glass and had resistances of 0.7 to 1.5 MΩ. The recording (bath) solution contained 96 mM NaCl, 4 mM KCl, 0.1 mM CaCl2, 1.8 mM MgCl2, and 5 mM HEPES, pH 7.5. The pipette solution contained 3 M KCl. […]

[2] = molecular target: T2, F87G mutant EAG1 channels (Mus musculus, UniProt Q60603, F87G); test: TEVC recording, imipramine inhibition, F87G mutant; type: cell-based; conditions: F87G mutant EAG1 channel, +50 mV
T2 construct: expressed in transfected cells; host or cells: Xenopus laevis oocytes injected with cRNA
T2 sequence (Q60603 1-989 F87G): T1 sequence (Q60603 1-989 V83G) with G83V, F87G
From the text: as §1, §2

IC50 [1]: 44.3 ± 2.6 µM
IC50 [2]: 42.8 ± 0.6 µM
Structure (SMILES): CN(C)CCCN1c2ccccc2CCc2ccccc21 [imipramine]
